Reference: PMC4721062, “Oxadiazole-2-oxides may have other functional targets, in addition to SjTGR, through which they cause mortality in Schistosoma japonicum” (Parasites & Vectors, 2016)
Where two headings read alike, the source gives them in different places.

Key:
[1] = Cytotoxicity assay on Hela cells (MTT); assay type: cell-based; conditions: human
Description: Cytotoxicity assays were performed using Hela cells. Cells in the exponential growth phase were collected by centrifugation and a concentration of 4–5 × 10^4/mL was created. 100 μL of the cell suspension was added to each well of a 96-well plate and cultured overnight at 37 °C in a humid atmosphere with 5 % CO2. Oxadiazole-2-oxides (at 10, 20, 40, 80 and 160 μM) were added. Each concentration was assayed in triplicate, and control wells (no cells and no drugs) were assayed at the same time. The “no cell” control wells only contained RPMI 1640 medium, MTT, DMSO, and oxadiazole-2-oxides. The “no drug” control wells contained the Hela cells, RPMI 1640 medium, MTT and DMSO. The cells were cultured for 48 h at 37 °C in a humid atmosphere with 5 % CO2. Then, 20 μL of 5 mg/mL MTT was added to each well and the culture conditions were maintained for 4 h. After this point, the medium was removed and 150 μL DMSO was added into each well to dissolve any crystallisation. The value of absorbance at 570 nm of each well was measured (at 570 nm) with a microplate reader to assess the toxic effect of the oxadiazole-2-oxides on the vertebrate cells.

adult S. japonicum = experiment: microbe, parasite or virus in culture; assay type: cell-based; conditions: for killing at 25 µM / killing at 50 µM / killing at 100 µM / Killing activity 24hr / Killing activity 48hr / Killing activity 72hr: adult worms
Procedure, shortened: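 Adult worm pairs recovered by portal perfusion from ICR mice 35 days after infection with 50 cercariae, cultured in RPMI 1640 (pH 7.5, 20 mM HEPES, 10% FBS) at 37 °C, 5% CO2. Oxadiazole-2-oxides at 10, 25, 50, 100 μM; motility and survival scored microscopically at 24, 48, 72 h, death being no movement over 2 min; three independent experiments averaged.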

[2] = test system: juvenile S. japonicum in mice; experiment: Treatment of infected mice at juvenile worm stage; assay type: in vivo, Schistosoma japonicum (ICR mice); conditions: 10 mg/kg i.p. daily for 5 days from day 7 post-infection; for Number of eggs per gram of liver (Mean ± SD) / Number of worms (Mean ± SD): sacrificed day 42; for Egg reduction rate / Worm reduction rate: versus control, 10 mg/kg
Description: (§1) The abdominal skin of each mouse (ICR, female, 22–24 g) was exposed to 20 S. japonica cercariae (as described above). The mice were intraperitoneally injected with 10 mg/kg oxadiazole-2-oxides daily for 5 days, beginning either 7 or 35 days post-infection. Control mice were treated with 10 mg/kg of the carrier medium. All mice were sacrificed 42 days post-infection. The worm burden of each mouse was confirmed by counting the number of worms observed from a portal vein perfusion. The mouse livers were digested overnight with 5 % potassium hydroxyl solution at 37 °C and the eggs in the liver tissue were counted under an inverted phase contrast microscope. The worm and egg reduction rates were calculated using the following formulas: Wormreductionrate%=meannumberofadultwormspermouseincontrolgroup−meannumberofadultwormspermouseinexperimentalgroup/meannumberofadultwormspermouseincontrolgroup. Eggreductionrate%=meannumberofeggspermouseincontrolgroup−meannumberofeggspermouseinexperimentalgroup/meannumberofeggspermouseincontrolgroup.

[3] = test system: adult S. japonicum in mice; experiment: Treatment of infected mice at adult worm stage; assay type: in vivo, Schistosoma japonicum (ICR mice); conditions: for Number of eggs per gram of liver (Mean ± SD) / Number of worms (Mean ± SD) / Egg reduction rate / Worm reduction rate: mice, 10 mg/kg i.p. daily for 5 days from day 35 post-infection; for Number of eggs per gram of liver (Mean ± SD) / Number of worms (Mean ± SD): sacrificed day 42; for Egg reduction rate / Worm reduction rate: versus control
Description: as §1

S. mansoni = conditions: compared with 10 μM, 72 h data; cited from earlier work
[4] = Schistosoma japonicum, read-out: Mortality of adult worms
[5] = Schistosoma japonicum, 25 μM, 24 h, read-out: Killing activity 24hr
[6] = Schistosoma japonicum, 25 μM, 48 h, read-out: Killing activity 48hr
[7] = Schistosoma japonicum, 25 μM, 72 h, read-out: Killing activity 72hr
[8] = Schistosoma japonicum, 24 h, read-out: Killing activity 24hr
[9] = Schistosoma japonicum, 48 h, read-out: Killing activity 48hr
[10] = Schistosoma japonicum, 72 h, read-out: Killing activity 72hr
[11] = Schistosoma japonicum, 24 h, read-out: Mortality of adult worms
[12] = Schistosoma japonicum, 72 h, read-out: Mortality of adult worms

| SMILES | viability at 72 h, 80 µM [1] [%] | killing at 25 µM (adult S. japonicum; [5]) [%] | killing at 25 µM (adult S. japonicum; [6]) [%] | killing at 25 µM (adult S. japonicum; [7]) [%] | killing at 50 µM (adult S. japonicum; [8]) [%] | killing at 50 µM (adult S. japonicum; [9]) [%] | killing at 50 µM (adult S. japonicum; [10]) [%] | killing at 100 µM (adult S. japonicum; [8]) [%] | killing at 100 µM (adult S. japonicum; [9]) [%] | killing at 100 µM (adult S. japonicum; [10]) [%] | Killing activity 24hr (adult S. japonicum; 10 μM, 24 h) | Killing activity 48hr (adult S. japonicum; 10 μM, 48 h) | Killing activity 72hr (adult S. japonicum; 10 μM, 72 h) | Number of eggs per gram of liver (Mean ± SD) [2] | Number of worms (Mean ± SD) [2] | Worm reduction rate [2] | Number of eggs per gram of liver (Mean ± SD) [3] | Number of worms (Mean ± SD) [3] | mortality at 25 µM (adult S. japonicum; [11]) [%] | other results |
| --- | --- | --- | --- | --- | --- | --- | --- | --- | --- | --- | --- | --- | --- | --- | --- | --- | --- | --- | --- | --- |
| COc1ccc(-c2no[n+]([O-])c2CO)cc1 [Compound 4a] | 91 | 50 | 100 | 100 | 88.9 | 100 | 100 | 100 | 100 | 100 | 37.5%D | 37.5%D | 50.0%D | 4,258.9 ± 1,910.0 (P > 0.05^**) | 1.3 ± 0.8 (P > 0.05^**) | 87.7 (P < 0.01^*) % | 7730.8 ± 1457.8 (P < 0.05^**) | 4.0 ± 2.5 (P > 0.05^**) |  | mortality at 100 µM (adult S. japonicum; [4]): 100%; Egg reduction rate [2]: 47.0 (P < 0.05^*) %; Reduction in the female worms ([3]; mice treated at adult worm stage (data not shown)): 36.8%; Egg reduction rate ([3]; 10 mg/kg): 3.8 (P > 0.05^*) %; Worm reduction rate ([3]; 10 mg/kg): 66.7 (P < 0.01^*) % |
| Cc1ccc(-c2no[n+]([O-])c2CO)cc1 [Compound 4b] | 96 | 63.6 | 81.8 | 66.7 | 60 | 80 | 100 | 57.1 | 100 | 100 | n.e. | n.e. | n.e. | 8,669.2 ± 2,255.8 (P < 0.05^**) | 1.8 ± 1.5 (P > 0.05^**) | 83.1 (P < 0.01^*) % | 7007.8 ± 2420.2 (P < 0.05^**) | 9.0 ± 3.8 (P < 0.05^**) |  | mortality at 100 µM (adult S. japonicum; [11]): 57.1 ± 2.1%; mortality at 100 µM (adult S. japonicum; Schistosoma japonicum, 48 h, read-out: Mortality of adult worms): 100%; Egg reduction rate [3]: 12.8 (P > 0.05^*) %; Worm reduction rate [3]: 25.0 (P > 0.05^*) % |
| COc1ccc(-c2no[n+]([O-])c2C#N)cc1 [Compound 7a] |  | 88.9 | 100 | 100 | 87.5 | 100 | 100 | 100 | 100 | 100 | 70.0%D | 100.0%D | 100.0%D |  |  |  |  |  | > 75 | mortality at 10 µM (adult S. japonicum; [12]): 100%; Mortality in adult worms of S. mansoni (S. mansoni): 100.0% |
| Cc1ccc(-c2no[n+]([O-])c2C#N)cc1 [Compound 7b] |  | 100 | 100 | 100 | 100 | 100 | 100 | 100 | 100 | 100 | 16.7%D | 50.0%D | 83.3%D |  |  |  |  |  | > 75 | mortality at 10 µM (adult S. japonicum; [12]): 83.3 ± 4.7%; Mortality in adult worms of S. mansoni (S. mansoni): 70.0% |
| N#Cc1c(-c2ccc(OCCBr)cc2)no[n+]1[O-] [Compound 12] |  | 80 | 100 | 100 | 88.9 | 100 | 100 | 100 | 100 | 100 | sluggish | sluggish | 55.6%D |  |  |  |  |  | > 75 |  |
| N#Cc1c(-c2ccc(OCCCBr)cc2)no[n+]1[O-] [Compound 13] | 80 |  | 100 | 100 | 100 | 100 | 100 | 100 | 100 | 100 | sluggish | 90.0%D | 100%D | 3,808.9 ± 1,288.9 (P > 0.05^**) | 1.7 ± 0.7 (P > 0.05^**) | 84.6 (P < 0.01^*) % | 8201.4 ± 2066.0 (P < 0.05^**) | 8.6 ± 2.4 (P < 0.05^**) |  | mortality at 50 µM (adult S. japonicum; [11]): 100%; Killing activity 24hr (adult S. japonicum; 25 μM, 24 h): sluggish; Egg reduction rate [2]: 52.6 (P < 0.05^*) %; Worm reduction rate [3]: 28.3 (P < 0.05^*) % |
| N#Cc1c(-c2ccc(OCc3ccccc3)cc2)no[n+]1[O-] [Compound 19] |  | 100 | 100 | 100 | 100 | 100 | 100 | 100 | 100 | 100 | 80.0%D | 100%D | 100%D |  |  |  |  |  | > 75 |  |
| C#CCOc1ccc(-c2no[n+]([O-])c2C#N)cc1 [Compound 20] | 87 | 50 | 100 | 100 | 70 | 100 | 100 | 100 | 100 | 100 | n.e. | 50.0%D | 75.0%D | 7,767.5 ± 2,676.6 (P < 0.05^**) | 3.0 ± 0.9 (P < 0.05^**) | 69.5 (P < 0.01^*) % | 10094.7 ± 1691.0 (P < 0.05^**) | 4.7 ± 1.1 (P > 0.05^**) |  | mortality at 100 µM (adult S. japonicum; [4]): 100%; Egg reduction rate [2]: 3.3 (P > 0.05^*) %; Worm reduction rate [3]: 61.1 (P < 0.01^*) % |
| N#Cc1c(-c2ccc(COc3ccccc3)cc2)no[n+]1[O-] [Compound 23] |  | 100 | 100 | 100 | 100 | 100 | 100 | 100 | 100 | 100 | 62.5%D | 87.5%D | 100%D |  |  |  |  |  | > 75 |  |
| N#Cc1c(-c2ccc(COc3ccc(C=O)cc3)cc2)no[n+]1[O-] [Compound 26] |  | 85.7 | 100 | 100 | 100 | 100 | 100 | 100 | 100 | 100 | n.e. | n.e. | 16.7%D |  |  |  |  |  | > 75 |  |
| Cc1ccc2cccc(OCc3ccc(-c4no[n+]([O-])c4C#N)cc3)c2n1 [Compound 28] |  | 100 | 100 | 100 | 100 | 100 | 100 | 100 | 100 | 100 | 57.1%D | 57.1%D | 71.4%D |  |  |  |  |  | > 75 |  |
